Reference: US20250263405A1, “HISTONE DEACETYLASE 6 INHIBITOR COMPOUNDS AND USES THEREOF” (VALO HEALTH, INC., priority 2021, published 2025)

Biological target: HDAC6 (Homo sapiens (Human), UniProt Q9UBN7)
Experiment: HDAC6 TR-FRET displacement assay
Format: binding
Conditions: displacement of fluorescein labeled tracer from HDAC6; 2 nM HDAC6, 1 nM tracer, 0.5 nM Tb-anti-GST antibody; 30 min pre-incubation, 6 hours at 25° C.
Text: HDAC6 and Tb-anti-GST antibody were purchased from Signal Chem (cat #PC124) and Cisbio (cat #61GSTTAH), respectively. HEPES, pH 7.5 was purchased from Teknova (Cat #H1575). All other buffer components, NaCl (cat #S5150), KCl (cat #60121), Triton X-100 (cat #T9284), GSH (cat #G4251), BGG (cat #G5009), and BSA (cat #A2153) were purchased from SIGMA.
Displacement of fluorescein labeled tracer 2-(6-hydroxy-3-oxo-3H-xanthen-9-yl)-5-({[5-(4-{[7-(hydroxycarbamoyl)-2H,3H,4H,5H-thieno[2,3-f][1,4]oxazepine-4-carbonyl]amino}phenoxy)pentyl]carbamothioyl}amino)benzoic acid from HDAC6 was measured in vitro using a TR-FRET assay. The assays were performed in 1536-well plates in a total volume of 6 μL in assay buffer consisting of 50 mM HEPES pH 7.5, 50 mM NaCl, 50 mM KCl, 0.01% Triton X-100, 0.5 mM GSH, 0.03% BGG, 0.01% BSA.
For concentration response curves (IC50 determination), Compounds were serially diluted 3-fold from 2 mM highest concentration to generate a 10-point concentration gradient. To perform the assay, 30 nL of compound gradient solutions were transferred to the assay plate using the ECHO acoustic dispenser to achieve a final concentration range of 10 μM to 0.000508 uM in 6 μL reaction. 3 μL of HDAC6 in assay buffer were added to the assay plates and pre-incubate at room temp. for 30 mins. After pre-incubation, 3 μL of the tracer and TB-anti-GST antibody mix were added to the assay plates. The final concentrations of HDAC6, tracer, and TB-anti-GST antibody for each assay are 2 nM, 1 nM, and 0.5 nM, respectively. Binding reactions were equilibrated at 25° C. for an additional 6 hours, then read in endpoint mode on the BMG PheraStar (BMG labtech) equipped with a 337-520-490 optical module. The ratio of the 520/490 nm emission was calculated to determine the relative amounts of HDAC6 and tracer complex residue in each well.
The percent inhibition of HDAC6 (IC50) was calculated according to the following equation.
As set forth in Table 1, “A” indicates an HDAC6 IC50 value of less than 200 nM; “B” indicates an HDAC6 IC50 value of greater than or equal to 200 nM and less than 500 nM; and “C” indicates an HDAC6 IC50 value of greater than or equal to 500 nM and less than 5 μM.

HDAC6, sequence (Q9UBN7 whole entry): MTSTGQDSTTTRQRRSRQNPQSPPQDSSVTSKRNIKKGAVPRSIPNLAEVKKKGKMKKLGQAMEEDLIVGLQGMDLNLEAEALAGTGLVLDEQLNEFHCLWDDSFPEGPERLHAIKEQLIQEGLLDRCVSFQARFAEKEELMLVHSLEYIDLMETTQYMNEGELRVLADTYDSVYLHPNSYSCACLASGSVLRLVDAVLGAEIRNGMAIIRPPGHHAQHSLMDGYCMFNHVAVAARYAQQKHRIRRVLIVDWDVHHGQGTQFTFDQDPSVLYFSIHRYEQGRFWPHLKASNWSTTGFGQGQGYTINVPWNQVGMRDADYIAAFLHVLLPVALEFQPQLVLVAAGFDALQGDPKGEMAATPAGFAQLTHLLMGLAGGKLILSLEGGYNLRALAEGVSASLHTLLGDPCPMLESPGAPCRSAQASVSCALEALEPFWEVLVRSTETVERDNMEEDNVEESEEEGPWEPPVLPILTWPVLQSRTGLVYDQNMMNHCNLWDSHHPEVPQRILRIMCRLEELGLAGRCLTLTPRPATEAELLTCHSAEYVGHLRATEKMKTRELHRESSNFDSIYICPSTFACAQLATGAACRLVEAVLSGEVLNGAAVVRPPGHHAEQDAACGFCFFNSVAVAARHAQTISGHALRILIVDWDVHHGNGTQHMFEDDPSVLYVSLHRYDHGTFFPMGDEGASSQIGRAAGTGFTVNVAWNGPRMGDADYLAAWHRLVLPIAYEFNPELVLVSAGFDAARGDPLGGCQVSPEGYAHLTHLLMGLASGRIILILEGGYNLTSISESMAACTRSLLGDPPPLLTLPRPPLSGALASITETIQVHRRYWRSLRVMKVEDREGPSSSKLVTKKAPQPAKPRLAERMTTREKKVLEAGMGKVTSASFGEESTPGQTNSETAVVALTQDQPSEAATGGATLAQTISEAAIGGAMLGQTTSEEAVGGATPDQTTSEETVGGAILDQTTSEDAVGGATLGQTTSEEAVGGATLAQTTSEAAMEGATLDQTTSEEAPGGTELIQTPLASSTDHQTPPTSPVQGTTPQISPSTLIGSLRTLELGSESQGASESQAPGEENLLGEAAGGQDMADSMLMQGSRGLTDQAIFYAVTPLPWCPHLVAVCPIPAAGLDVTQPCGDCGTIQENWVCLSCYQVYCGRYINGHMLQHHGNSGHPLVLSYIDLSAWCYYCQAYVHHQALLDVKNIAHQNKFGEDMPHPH

Compound	IC50
C[C@H]1COc2cc(-c3noc(C(F)(F)F)n3)ccc2CN1S(C)(=O)=O [Compound 33, (S)-3-methyl-4-(methylsulfonyl)-8-(5-(trifluoromethyl)-1,2,4-oxadiazol-3-yl)-2,3,4,5-tetrahydrobenzo[f][1,4]oxazepine]	200 to 500 nM
C[C@H]1COc2cc(-c3noc(C(F)(F)F)n3)ccc2CN1S(=O)(=O)C(C)(C)C [Compound 34, (3S)-3-methyl-4-(2-methylpropane-2-sulfonyl)-8-[5-(trifluoromethyl)-1,2,4-oxadiazol-3-yl]-3,5-dihydro-2H-1,4-benzoxazepine]	200 to 500 nM
C[C@H]1COc2cc(-c3noc(C(F)(F)F)n3)ccc2CN1C [Compound 35, (S)-3,4-dimethyl-8-(5-(trifluoromethyl)-1,2,4-oxadiazol-3-yl)-2,3,4,5-tetrahydrobenzo[f][1,4]oxazepine]	200 to 500 nM
C[C@H]1COc2cc(-c3noc(C(F)(F)F)n3)ccc2CN1CC(F)(F)F [Compound 36, (S)-3-methyl-4-(2,2,2-trifluoroethyl)-8-(5-(trifluoromethyl)-1,2,4-oxadiazol-3-yl)-2,3,4,5-tetrahydrobenzo[f][1,4]oxazepine]	500 to 5000 nM
CC1(C(=O)N2CCOc3cc(-c4noc(C(F)(F)F)n4)cc(F)c3C2)COC1 [Compound 37, 6-fluoro-4-[(3-methyloxetan-3-yl)carbonyl]-8-[5-(trifluoromethyl)-1,2,4-oxadiazol-3-yl]-3,5-dihydro-2H-1,4-benzoxazepine]	< 200 nM
CC(C)C(=O)N1Cc2c(F)cc(-c3noc(C(F)(F)F)n3)cc2OC[C@@H]1C [Compound 38, 1-[(3S)-6-fluoro-3-methyl-8-[5-(trifluoromethyl)-1,2,4-oxadiazol-3-yl]-3,5-dihydro-2H-1,4-benzoxazepin-4-yl]-2-methylpropan-1-one]	< 200 nM
C[C@H]1COc2cc(-c3noc(C(F)(F)F)n3)cc(F)c2CN1C(=O)C1CCOCC1 [Compound 39, (3S)-6-fluoro-3-methyl-4-[(oxan-4-yl)carbonyl]-8-[5-(trifluoromethyl)-1,2,4-oxadiazol-3-yl]-3,5-dihydro-2H-1,4-benzoxazepine]	< 200 nM
C[C@H]1COc2cc(-c3noc(C(F)(F)F)n3)cc(F)c2CN1C(=O)CO [Compound 40, 1-[(3S)-6-fluoro-3-methyl-8-[5-(trifluoromethyl)-1,2,4-oxadiazol-3-yl]-3,5-dihydro-2H-1,4-benzoxazepin-4-yl]-2-hydroxyethanone]	200 to 500 nM
COCC(=O)N1Cc2c(F)cc(-c3noc(C(F)(F)F)n3)cc2OC[C@@H]1C [Compound 41, 1-[(3S)-6-fluoro-3-methyl-8-[5-(trifluoromethyl)-1,2,4-oxadiazol-3-yl]-3,5-dihydro-2H-1,4-benzoxazepin-4-yl]-2-methoxyethanone]	< 200 nM
C[C@H]1COc2cc(-c3noc(C(F)(F)F)n3)cc(F)c2CN1C(=O)CCN(C)C [Compound 42, (S)-3-(dimethylamino)-1-(6-fluoro-3-methyl-8-(5-(trifluoromethyl)-1,2,4-oxadiazol-3-yl)-2,3-dihydrobenzo[f][1,4]oxazepin-4(5H)-yl)propan-1-one]	200 to 500 nM
C[C@H]1COc2cc(-c3noc(C(F)(F)F)n3)cc(F)c2CN1C(=O)CN(C)C [Compound 43, (S)-2-(dimethylamino)-1-(6-fluoro-3-methyl-8-(5-(trifluoromethyl)-1,2,4-oxadiazol-3-yl)-2,3-dihydrobenzo[f][1,4]oxazepin-4(5H)-yl)ethan-1-one]	200 to 500 nM
C[C@H]1COc2cc(-c3noc(C(F)(F)F)n3)cc(F)c2CN1C(=O)c1ccccc1 [Compound 44, (3S)-4-benzoyl-6-fluoro-3-methyl-8-[5-(trifluoromethyl)-1,2,4-oxadiazol-3-yl]-3,5-dihydro-2H-1,4-benzoxazepine]	200 to 500 nM
C[C@H]1COc2cc(-c3noc(C(F)(F)F)n3)cc(F)c2CN1C(=O)Cc1ccncc1 [Compound 46, 1-[(3S)-6-fluoro-3-methyl-8-[5-(trifluoromethyl)-1,2,4-oxadiazol-3-yl]-3,5-dihydro-2H-1,4-benzoxazepin-4-yl]-2-(pyridin-4-yl) ethenone]	< 200 nM
CC1(C(=O)N2Cc3ccc(-c4noc(C(F)(F)F)n4)cc3OCC23CC3)COC1 [Compound 47, (3-methyloxetan-3-yl)(8-(5-(trifluoromethyl)-1,2,4-oxadiazol-3-yl)-2H-spiro[benzo[f][1,4]oxazepine-3,1′-cyclopropan]-4(5H)-yl)methanone]	200 to 500 nM
CC(=O)N1CCC(C)(C(=O)N2Cc3c(F)cc(-c4noc(C(F)(F)F)n4)cc3OC[C@@H]2C)CC1 [Compound 48, (S)-1-(4-(6-fluoro-3-methyl-8-(5-(trifluoromethyl)-1,2,4-oxadiazol-3-yl)-2,3,4,5-tetrahydrobenzo[f][1,4]oxazepine-4-carbonyl)-4-methylpiperidin-1-yl)ethan-1-one]	200 to 500 nM
C[C@H]1COc2cc(-c3noc(C(F)(F)F)n3)cc(F)c2CN1C(=O)c1ccncc1 [Compound 49, (3S)-6-fluoro-3-methyl-4-[(pyridin-4-yl)carbonyl]-8-[5-(trifluoromethyl)-1,2,4-oxadiazol-3-yl]-3,5-dihydro-2H-1,4-benzoxazepine]	200 to 500 nM
CC1Oc2cc(-c3noc(C(F)(F)F)n3)ccc2CNC1=O (centres unmarked) [Compound 50, 2-methyl-8-[5-(trifluoromethyl)-1,2,4-oxadiazol-3-yl]-4,5-dihydro-2H-1,4-benzoxazepin-3-one]	< 200 nM
FC(F)(F)c1nc(-c2ccc3c(c2)OCCN(c2nc4ccccc4[nH]2)C3)no1 [Compound 51, 4-(1H-benzo[d]imidazol-2-yl)-8-(5-(trifluoromethyl)-1,2,4-oxadiazol-3-yl)-2,3,4,5-tetrahydrobenzo[f][1,4]oxazepine]	< 200 nM
CC1(C(=O)N2CCOc3cc(-c4noc(C(F)(F)F)n4)ccc3C2)COC1 [Compound 52, 4-[(3-methyloxetan-3-yl)carbonyl]-8-[5-(trifluoromethyl)-1,2,4-oxadiazol-3-yl]-3,5-dihydro-2H-1,4-benzoxazepine]	200 to 500 nM
CC(C)C(=O)N1CCOc2cc(-c3noc(C(F)(F)F)n3)ccc2C1 [Compound 53, 2-methyl-1-{8-[5-(trifluoromethyl)-1,2,4-oxadiazol-3-yl]-3,5-dihydro-2H-1,4-benzoxazepin-4-yl}propan-1-one]	200 to 500 nM
O=C(C1CCOCC1)N1CCOc2cc(-c3noc(C(F)(F)F)n3)ccc2C1 [Compound 54, 4-[(oxan-4-yl)carbonyl]-8-[5-(trifluoromethyl)-1,2,4-oxadiazol-3-yl]-3,5-dihydro-2H-1,4-benzoxazepine]	200 to 500 nM
CCN1CCC(C)(C(=O)N2Cc3c(F)cc(-c4noc(C(F)(F)F)n4)cc3OC[C@@H]2C)CC1 [Compound 55, (S)-(1-ethyl-4-methylpiperidin-4-yl)(6-fluoro-3-methyl-8-(5-(trifluoromethyl)-1,2,4-oxadiazol-3-yl)-2,3-dihydrobenzo[f][1,4]oxazepin-4(5H)-yl)methanone]	200 to 500 nM
CC(C)N1CCC(C)(C(=O)N2Cc3c(F)cc(-c4noc(C(F)(F)F)n4)cc3OC[C@@H]2C)CC1 [Compound 56, (S)-(6-fluoro-3-methyl-8-(5-(trifluoromethyl)-1,2,4-oxadiazol-3-yl)-2,3-dihydrobenzo[f][1,4]oxazepin-4(5H)-yl)(1-isopropyl-4-methylpiperidin-4-yl)methanone]	< 200 nM
